# Reference: the supplement of paper PMC10307832
# Assays:
# Experiment in all cases: relative viability (nuclei count vs DMSO), 5 days (fraction); higher = more cells survive
# NCI-H23 = system: NCI-H23
# Method in brief: (§1)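 Medians of duplicate plates are given as relative viability. That measure is the nuclei count in treated wells divided by the count in vehicle wells. Counts were taken on 4× images of lung cancer cell lines in 1536-well plates, 5 days after pin-tool dosing the day after seeding with one drug alone or a fixed anchor-drug dose plus five library-drug doses (not always all listed) in √10 steps.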
# NCI-H650 = system: NCI-H650
# Method in brief: as §1
# HCC-15 = system: HCC-15
# Method in brief: as §1
# HARA = system: HARA
# Method in brief: as §1
# SK-MES-1 = system: SK-MES-1
# Method in brief: as §1
# NCI-H1975 = system: NCI-H1975
# Method in brief: as §1
# COR-L23 = system: COR-L23
# Method in brief: as §1
# BEN = system: BEN
# Method in brief: as §1
# HCC-44 = system: HCC-44
# Method in brief: as §1
# 201T = system: 201T
# Method in brief: as §1
# NCI-H1792 = system: NCI-H1792
# Method in brief: as §1
# A-427 = system: A-427
# Method in brief: as §1
# NCI-H838 = system: NCI-H838
# Method in brief: as §1
# NCI-H1650 = system: NCI-H1650
# Method in brief: as §1
# NCI-H2342 = system: NCI-H2342
# Method in brief: as §1
# NCI-H441 = system: NCI-H441
# Method in brief: as §1
# SW 900 = system: SW 900
# Method in brief: as §1
# NCI-H1437 = system: NCI-H1437
# Method in brief: as §1
# EKVX = system: EKVX
# Method in brief: as §1
# NCI-H358 = system: NCI-H358
# Method in brief: as §1
# HCC-827 = system: HCC-827
# Method in brief: as §1
structure (smiles),measurement,setting,value
CC(=O)O[C@@]12CO[C@@H]1C[C@H](O)[C@@]1(C)C(=O)[C@H](O)C3=C(C)[C@@H](OC(=O)[C@H](O)[C@@H](NC(=O)OC(C)(C)C)c4ccccc4)C[C@@](O)([C@@H](OC(=O)c4ccccc4)[C@H]21)C3(C)C [Docetaxel] + CC(=O)c1c(C)c2cnc(Nc3ccc(N4CCNCC4)cn3)nc2n(C2CCCC2)c1=O [Palbociclib] (partner 0.5 µM),relative viability,NCI-H23; first compound 0.0002 µM,0.562
same,relative viability,NCI-H23; first compound 0.000632 µM,0.523
same,relative viability,NCI-H23; first compound 0.002 µM,0.348
same,relative viability,NCI-H23; first compound 0.006325 µM,0.168
same,relative viability,NCI-H23; first compound 0.02 µM,0.163
same,relative viability,NCI-H650; first compound 0.0002 µM,0.34
same,relative viability,NCI-H650; first compound 0.000632 µM,0.305
same,relative viability,NCI-H650; first compound 0.002 µM,0.222
same,relative viability,NCI-H650; first compound 0.006325 µM,0.211
same,relative viability,NCI-H650; first compound 0.02 µM,0.193
same,relative viability,HCC-15; first compound 0.0002 µM,0.643
same,relative viability,HCC-15; first compound 0.000632 µM,0.383
same,relative viability,HCC-15; first compound 0.002 µM,0.228
same,relative viability,HCC-15; first compound 0.006325 µM,0.247
same,relative viability,HARA; first compound 0.0002 µM,0.222
same,relative viability,HARA; first compound 0.000632 µM,0.189
same,relative viability,HARA; first compound 0.002 µM,0.168
same,relative viability,HARA; first compound 0.006325 µM,0.128
same,relative viability,HARA; first compound 0.02 µM,0.0982
same,relative viability,SK-MES-1; first compound 0.0002 µM,0.401
same,relative viability,SK-MES-1; first compound 0.000632 µM,0.444
same,relative viability,SK-MES-1; first compound 0.002 µM,0.382
same,relative viability,SK-MES-1; first compound 0.006325 µM,0.303
same,relative viability,SK-MES-1; first compound 0.02 µM,0.176
same,relative viability,NCI-H1975; first compound 0.0002 µM,0.568
same,relative viability,NCI-H1975; first compound 0.000632 µM,0.354
same,relative viability,NCI-H1975; first compound 0.002 µM,0.224
same,relative viability,NCI-H1975; first compound 0.006325 µM,0.215
same,relative viability,NCI-H1975; first compound 0.02 µM,0.107
same,relative viability,COR-L23; first compound 0.0002 µM,0.299
same,relative viability,COR-L23; first compound 0.000632 µM,0.262
same,relative viability,COR-L23; first compound 0.002 µM,0.142
same,relative viability,COR-L23; first compound 0.006325 µM,0.141
same,relative viability,COR-L23; first compound 0.02 µM,0.108
same,relative viability,BEN; first compound 0.0002 µM,0.457
same,relative viability,BEN; first compound 0.000632 µM,0.478
same,relative viability,BEN; first compound 0.002 µM,0.39
same,relative viability,BEN; first compound 0.006325 µM,0.376
same,relative viability,BEN; first compound 0.02 µM,0.343
same,relative viability,HCC-44; first compound 0.0002 µM,0.904
same,relative viability,HCC-44; first compound 0.000632 µM,1.01
same,relative viability,HCC-44; first compound 0.002 µM,0.968
same,relative viability,HCC-44; first compound 0.006325 µM,0.691
same,relative viability,HCC-44; first compound 0.02 µM,0.632
same,relative viability,201T; first compound 0.0002 µM,0.357
same,relative viability,201T; first compound 0.000632 µM,0.369
same,relative viability,201T; first compound 0.002 µM,0.367
same,relative viability,201T; first compound 0.006325 µM,0.388
same,relative viability,201T; first compound 0.02 µM,0.335
same,relative viability,NCI-H1792; first compound 0.0002 µM,0.651
same,relative viability,NCI-H1792; first compound 0.000632 µM,0.639
same,relative viability,NCI-H1792; first compound 0.002 µM,0.543
same,relative viability,NCI-H1792; first compound 0.006325 µM,0.367
same,relative viability,NCI-H1792; first compound 0.02 µM,0.213
same,relative viability,A-427; first compound 0.0002 µM,0.522
same,relative viability,A-427; first compound 0.000632 µM,0.505
same,relative viability,A-427; first compound 0.002 µM,0.507
same,relative viability,A-427; first compound 0.006325 µM,0.372
same,relative viability,A-427; first compound 0.02 µM,0.241
same,relative viability,NCI-H838; first compound 0.0002 µM,0.223
same,relative viability,NCI-H838; first compound 0.000632 µM,0.251
same,relative viability,NCI-H838; first compound 0.002 µM,0.209
same,relative viability,NCI-H838; first compound 0.006325 µM,0.176
same,relative viability,NCI-H838; first compound 0.02 µM,0.133
same,relative viability,NCI-H1650; first compound 0.0002 µM,0.257
same,relative viability,NCI-H1650; first compound 0.000632 µM,0.263
same,relative viability,NCI-H1650; first compound 0.002 µM,0.207
same,relative viability,NCI-H1650; first compound 0.006325 µM,0.216
same,relative viability,NCI-H1650; first compound 0.02 µM,0.138
same,relative viability,NCI-H2342; first compound 0.0002 µM,0.683
same,relative viability,NCI-H2342; first compound 0.000632 µM,0.558
same,relative viability,NCI-H2342; first compound 0.002 µM,0.486
same,relative viability,NCI-H2342; first compound 0.006325 µM,0.388
same,relative viability,NCI-H2342; first compound 0.02 µM,0.394
same,relative viability,NCI-H441; first compound 0.0002 µM,0.215
same,relative viability,NCI-H441; first compound 0.000632 µM,0.218
same,relative viability,NCI-H441; first compound 0.002 µM,0.209
same,relative viability,NCI-H441; first compound 0.006325 µM,0.2
same,relative viability,NCI-H441; first compound 0.02 µM,0.132
same,relative viability,SW 900; first compound 0.0002 µM,0.511
same,relative viability,SW 900; first compound 0.000632 µM,0.308
same,relative viability,SW 900; first compound 0.002 µM,0.354
same,relative viability,SW 900; first compound 0.006325 µM,0.332
same,relative viability,SW 900; first compound 0.02 µM,0.264
same,relative viability,NCI-H1437; first compound 0.0002 µM,0.261
same,relative viability,NCI-H1437; first compound 0.000632 µM,0.33
same,relative viability,NCI-H1437; first compound 0.002 µM,0.297
same,relative viability,NCI-H1437; first compound 0.02 µM,0.156
same,relative viability,EKVX; first compound 0.0002 µM,0.337
same,relative viability,EKVX; first compound 0.000632 µM,0.36
same,relative viability,EKVX; first compound 0.002 µM,0.245
same,relative viability,EKVX; first compound 0.006325 µM,0.242
same,relative viability,EKVX; first compound 0.02 µM,0.149
same,relative viability,NCI-H358; first compound 0.0002 µM,0.16
same,relative viability,NCI-H358; first compound 0.000632 µM,0.173
same,relative viability,NCI-H358; first compound 0.002 µM,0.142
same,relative viability,NCI-H358; first compound 0.006325 µM,0.126
same,relative viability,NCI-H358; first compound 0.02 µM,0.111
same,relative viability,HCC-827; first compound 0.0002 µM,0.508
same,relative viability,HCC-827; first compound 0.000632 µM,0.446
same,relative viability,HCC-827; first compound 0.002 µM,0.375
same,relative viability,HCC-827; first compound 0.006325 µM,0.213
same,relative viability,HCC-827; first compound 0.02 µM,0.197
